The text below walks through data of US8012961B2, “Tricyclic antibiotics” (Actelion Pharmaceutical Ltd., priority 2008, dated 2011).

The test concerns M. catarrhalis A894. The experiment in a line: MIC determination by microdilution in cation-adjusted Mueller-Hinton Broth (NCCLS). Format: cell-based. The settings on record: pH of the test medium 7.2-7.3; for MIC M. catarrhalis A894: microdilution method; for MIC: Moraxella catarrhalis, A894, microdilution method. On the procedure: These assays have been performed following the description given in “Methods for dilution Antimicrobial Susceptibility Tests for Bacteria that Grow Aerobically, 4th ed.; Approved standard: NCCLS Document M7-A4; National Committee for Clinical Laboratory Standards: Villanova, Pa., USA, 1997”. Minimal inhibitory concentrations (MICs; mg/l) were determined in cation-adjusted Mueller-Hinton Broth by a microdilution method following NCCLS guidelines (National Committee for Clinical Laboratory Standards. Methods for Dilution Antimicrobial Susceptibility). The pH of the test medium was 7.2-7.3. All Example compounds were tested against several Gram positive and Gram negative bacteria such as S. aureus, E. faecalis, S. pneumoniae, M. catarrhalis or E.coli.
(In general: Dilution methods test growth across graded concentrations, often in twofold steps.)

Values after ≈ are worked out from the molar mass of the structure shown. Where only a bound is given, the exact number is not on record here.

Regarding `COc1ccc2ncc3c(c2n1)C(CN1CCO[C@@H](CNCc2ccc4c(n2)NC(=O)CO4)C1)CO3` (mixture of isomers) [Example 24, 6-({[(2S)-4-((1RS)-8-methoxy-1,2-dihydro-3-oxa-5,9-diaz-cyclopenta[a]naphthalen-1-ylmethyl)-morpholin-2-ylmethyl]-amino}-methyl) -4H-pyrido[3,2-b][1,4]oxazin-3-one], the “MIC M. catarrhalis A894” value is given as “≦0.031 mg/l”. For `COc1ccc2ncc3c(c2n1)C(CN1CCC[C@@H](CNCc2ccc4c(n2)NC(=O)CO4)C1)CO3` (mixture of isomers) [Example 27], the “MIC M. catarrhalis A894” value is “≦0.031 mg/l”.

For `COc1ccc2ncc3c(c2n1)C(CN1CCC[C@@H](CNCc2cc4c(cn2)OCCO4)C1)CO3` (mixture of isomers) [Example 29], the “MIC M. catarrhalis A894” value is “≦0.031 mg/l”. `COc1ccc2ncc3c(c2n1)C(CN1CCC[C@@H](CNC/C=C/c2cc(F)ccc2F)C1)CO3` (mixture of isomers) [Example 30]: the “MIC M. catarrhalis A894” value is “≦0.031 mg/l”. The same measure, in the same setting: in the case of `COc1ccc2ncc3c(c2n1)C(CN1CC2C(C1)C2NCc1ccc2c(n1)NC(=O)CO2)CO3` (racemic) [Example 32, 6-{[(1α,5α,6α)-3-((1RS)-8-methoxy-1,2-dihydro-3-oxa-5,9-diaza-cyclopenta[a]naphthalen-1-ylmethyl)-3-aza-bicyclo[3.1.0]hex-6-ylamino]-methyl}-4H-pyrido[3,2-b][1,4]oxazin-3-one] it was “≦0.031 mg/l”; in that of `COc1ccc2ncc3c(c2n1)C(CN1CC2C(C1)C2NCc1cc2c(cn1)OCCO2)CO3` (racemic) [Example 33, (2,3-dihydro-[1,4]dioxino[2,3-c]pyridin-7-ylmethyl)-[(1α,5α,6α)-3-((1RS)-8-methoxy-1,2-dihydro-3-oxa-5,9-diaza-cyclopenta[a]naphthalen-1-ylmethyl)-3-aza-bicyclo[3.1.0]hex-6-yl]amine], “≦0.031 mg/l”; in that of `COc1ccc2ncc3c(c2n1)C(CN1CC2C(C1)C2NCc1ccc2c(n1)NC(=O)CS2)CO3` (racemic) [Example 34, 6-{[(1α,5α,6α)-3-((1RS)-8-methoxy-1,2-dihydro-3-oxa-5,9-diaza-cyclopenta[a]naphthalen-1-ylmethyl)-3-aza-bicyclo[3.1.0]hex-6-ylamino]-methyl}-4H-pyrido[3,2-b][1,4]thiazin-3-one], “≦0.031 mg/l”. With `O=C1COc2ccc(CNC3CCN(CC4COc5cnc6ccc(F)cc6c54)CC3)nc2N1` (racemic) [Example 35, rac-6-{[1-(8-fluoro-1,2-dihydro-furo[2,3-c]quinolin-1-ylmethyl)-piperidin-4-ylamino]-methyl}-4H-pyrido[3,2-b][1,4]oxazin-3-one], the MIC (commonly the smallest concentration in the dilution series that meets the test's criterion for growth inhibition) was no more than 0.031 µg/mL. On the same count and under the same terms, the result for `COc1ccc2ncc3c(c2n1)C(CN1CC[C@@H](NCc2ccc4c(n2)NC(=O)CS4)[C@@H](F)C1)CO3` (relative stereo) [Example 17, 6-{[(3S*,4R*)-3-fluoro-1-((1RS)-8-methoxy-1,2-dihydro-3-oxa-5,9-diaza-cyclopenta[a]naphthalen-1-ylmethyl)-piperidin-4-ylamino]-methyl}-4H-pyrido[3,2-b][1,4]thiazin-3-one] reads no more than 0.031 µg/mL; that for `COc1ccc2ncc3c(c2n1)C(CN1CC[C@@H](NCc2ccc4c(n2)NC(=O)CO4)[C@@H](F)C1)CO3` (relative stereo) [Example 18, 6-{[(3S*,4R*)-3-fluoro-1-((1RS)-8-methoxy-1,2-dihydro-3-oxa-5,9-diaza-cyclopenta[a]naphthalen-1-ylmethyl)-piperidin-4-ylamino]-methyl}-4H-pyrido[3,2-b][1,4]oxazin-3-one], no more than 0.031 µg/mL. For the molecule `COc1ccc2ncc3c(c2n1)C(CN1CC[C@@H](NCc2cc4c(cn2)OCCO4)[C@@H](F)C1)CO3` (relative stereo) [Example 19, (2,3-dihydro-[1,4]dioxino[2,3-c]pyridin-7-ylmethyl)-[(3S*,4R*)-3-fluoro-1-((1RS)-8-methoxy-1,2-dihydro-3-oxa-5,9-diaza-cyclopenta[a]naphthalen-1-ylmethyl) -piperidin-4-yl]-amine], the MIC was no more than 0.031 µg/mL. In the case of `COc1ccc2ncc3c(c2n1)C(CN1CC[C@H](NCc2ccc4c(n2)NC(=O)CS4)[C@H](CO)C1)CO3` (relative stereo) [Example 36, 6-{(3R*,4S*)-[3-hydroxymethyl-1-((1RS)-8-methoxy-1,2-dihydro-3-oxa-5,9-diaza-cyclopenta[a]naphthalen-1-ylmethyl)-piperidin-4-ylamino]-methyl}-4H-pyrido[3,2-b][1,4]thiazin-3-one], the minimum inhibitory concentration (MIC) is no more than 0.031 µg/mL. For `COc1ccc2ncc3c(c2n1)C(CN1CC[C@H](NCc2ccc4c(n2)NC(=O)CO4)[C@H](CO)C1)CO3` (relative stereo) [Example 37, 6-{(3R*,4S*)-[3-hydroxymethyl-1-((1RS)-8-methoxy-1,2-dihydro-3-oxa-5,9-diaza-cyclopenta[a]naphthalen-1-ylmethyl)-piperidin-4-ylamino]-methyl}-4H-pyrido[3,2-b][1,4]oxazin-3-one], the MIC was no more than 0.031 µg/mL.

`COc1ccc2ncc3c(c2n1)C(CN1CC[C@H](NCc2cc4c(nn2)OCCO4)[C@H](CO)C1)CO3` (relative stereo) [Example 38, (3R*,4S*)-[4-[(6,7-dihydro-[1,4]dioxino[2,3-c]pyridazin-3-ylmethyl)-amino]-1-((1RS)-8-methoxy-1,2-dihydro-3-oxa-5,9-diaza-cyclopenta[a]naphthalen-1-ylmethyl)-piperidin-3-yl]-methanol] registered an MIC of 0.063 µg/mL (≈ 0.127 µM). In the case of `COc1ccc2ncc3c(c2n1)[C@H](CN1CCC(NCc2ccc4c(n2)NC(=O)CS4)CC1)CO3` (single isomer, unassigned) [Example 16A], the minimum inhibitory concentration (MIC) was no more than 0.031 µg/mL. On the same count and under the same terms, in the case of `COc1ccc2ncc3c(c2n1)[C@@H](CN1CCC(NCc2ccc4c(n2)NC(=O)CS4)CC1)CO3` (single isomer, unassigned) [Example 16B] it was no more than 0.031 µg/mL; in that of `COc1ccc2ncc3c(c2n1)[C@@H](CN1CCC(NCc2cc4c(cn2)OCCO4)C(CO)C1)CO3` (stereo partly drawn) [Example 40, [4-[(2,3-dihydro-[1,4]dioxino[2,3-c]pyridin-7-ylmethyl)-amino]-1-((S)-8-methoxy-1,2-dihydro-3-oxa-5,9-diaza-cyclopenta[a]naphthalen-1-ylmethyl)-piperidin-3-yl]-methanol], no more than 0.031 µg/mL.
